# Experimental data as given in US20230250066A1, “HERBICIDAL CINNOLINE DERIVATIVES” (SYNGENTA CROP PROTECTION AG, priority 2020, published 2023).
# What was measured:
# Type in all cases: in vivo
# [1] = system: Abutilon theophrasti (ABUTH); test: Pre-emergence herbicidal test; settings: 1000 g/ha, evaluated after 13 days
# [2] = system: Ipomoea hederacea (IPOHE); test: Pre-emergence herbicidal test; settings: 1000 g/ha, evaluated after 13 days
# [3] = system: Echinochloa crus-galli (ECHCG); test: Post-emergence herbicidal test; settings: 1000 g/ha unless otherwise stated, evaluated after 13 days
# Summary of the method: (§1)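 Scores on a five-point scale: 5=81-100%, 4=61-80%, 3=41-60%, 2=21-40%, 1=10-20%, 0=0% damage. These are assessed 13 days after spraying at 1000 g/ha unless stated.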
# [4] = system: Amaranthus retoflexus (AMARE); test: Post-emergence herbicidal test; settings: 1000 g/ha unless otherwise stated, evaluated after 13 days
# Summary of the method: as §1
# Zea mays (ZEAMX) [5] = test: Post-emergence herbicidal test; settings: 1000 g/ha unless otherwise stated, evaluated after 13 days
# Summary of the method: as §1
# [6] = system: Ipomoea hederacea (IPOHE); test: Post-emergence herbicidal test; settings: 1000 g/ha unless otherwise stated, evaluated after 13 days
# Summary of the method: as §1
# Setaria faberi (SETFA) [7] = test: Post-emergence herbicidal test; settings: 1000 g/ha unless otherwise stated, evaluated after 13 days
# Summary of the method: as §1
# [8] = system: Abutilon theophrasti (ABUTH); test: Post-emergence herbicidal test; settings: 1000 g/ha unless otherwise stated, evaluated after 13 days
# Summary of the method: as §1
# Zea mays (ZEAMX) [9] = test: Pre-emergence herbicidal test; settings: 1000 g/ha, evaluated after 13 days
# [10] = system: Amaranthus retoflexus (AMARE); test: Pre-emergence herbicidal test; settings: 1000 g/ha, evaluated after 13 days
# [11] = system: Echinochloa crus-galli (ECHCG); test: Pre-emergence herbicidal test; settings: 1000 g/ha, evaluated after 13 days
# Setaria faberi (SETFA) [12] = test: Pre-emergence herbicidal test; settings: 1000 g/ha, evaluated after 13 days
smiles,measurement,setting,value
"CCOC(=O)c1nn(-c2ccc(Cl)cc2F)c2cccc(S(C)(=O)=O)c2c1=O [Compound P42, ethyl 1-(4-chloro-2-fluoro-phenyl)-5-methylsulfonyl-4-oxo-cinnoline-3-carboxylate]","percentage damage caused to the plant, five-point scale, ABUTH",[1],1 (1=10-20%)
same,"percentage damage caused to the plant, five-point scale, IPOHE",[2],1 (1=10-20%)
same,"percentage damage caused to the plant, ECHCG (five-point scale)",[3],4 (4=61-80%)
same,"percentage damage caused to the plant, AMARE (five-point scale)",[4],1 (1=10-20%)
same,"percentage damage caused to the plant, ZEAMX (five-point scale)",Zea mays (ZEAMX) [5],1 (1=10-20%)
same,"percentage damage caused to the plant, IPOHE (five-point scale)",[6],1 (1=10-20%)
same,"percentage damage caused to the plant, SETFA (five-point scale)",Setaria faberi (SETFA) [7],4 (4=61-80%)
same,"percentage damage caused to the plant, ABUTH (five-point scale)",[8],1 (1=10-20%)
same,"percentage damage caused to the plant, five-point scale, ZEAMX",Zea mays (ZEAMX) [9],0 (0=0%)
same,"percentage damage caused to the plant, five-point scale, AMARE",[10],0 (0=0%)
same,"percentage damage caused to the plant, five-point scale, ECHCG",[11],3 (3=41-60%)
same,"percentage damage caused to the plant, five-point scale, SETFA",Setaria faberi (SETFA) [12],4 (4=61-80%)
"CS(=O)(=O)c1cccc2c1c(=O)c(C(=O)O)nn2-c1ccc(Cl)cc1Cl [Compound P43, 1-(2,4-dichlorophenyl)-5-methylsulfonyl-4-oxo-cinnoline-3-carboxylic acid]","percentage damage caused to the plant, five-point scale, ABUTH",[1],0 (0=0%)
same,"percentage damage caused to the plant, five-point scale, IPOHE",[2],1 (1=10-20%)
same,"percentage damage caused to the plant, ECHCG (five-point scale)",[3],3 (3=41-60%)
same,"percentage damage caused to the plant, AMARE (five-point scale)",[4],1 (1=10-20%)
same,"percentage damage caused to the plant, ZEAMX (five-point scale)",Zea mays (ZEAMX) [5],1 (1=10-20%)
same,"percentage damage caused to the plant, IPOHE (five-point scale)",[6],1 (1=10-20%)
same,"percentage damage caused to the plant, SETFA (five-point scale)",Setaria faberi (SETFA) [7],4 (4=61-80%)
same,"percentage damage caused to the plant, ABUTH (five-point scale)",[8],2 (2=21-40%)
same,"percentage damage caused to the plant, five-point scale, ZEAMX",Zea mays (ZEAMX) [9],0 (0=0%)
same,"percentage damage caused to the plant, five-point scale, AMARE",[10],0 (0=0%)
same,"percentage damage caused to the plant, five-point scale, ECHCG",[11],2 (2=21-40%)
same,"percentage damage caused to the plant, five-point scale, SETFA",Setaria faberi (SETFA) [12],4 (4=61-80%)
"CCOC(=O)c1nn(-c2ccc(Cl)cc2Cl)c2cccc(S(C)(=O)=O)c2c1=O [Compound P44, ethyl 1-(2,4-dichlorophenyl)-5-methylsulfonyl-4-oxo-cinnoline-3-carboxylate]","percentage damage caused to the plant, five-point scale, ABUTH",[1],0 (0=0%)
same,"percentage damage caused to the plant, five-point scale, IPOHE",[2],0 (0=0%)
same,"percentage damage caused to the plant, ECHCG (five-point scale)",[3],4 (4=61-80%)
same,"percentage damage caused to the plant, AMARE (five-point scale)",[4],1 (1=10-20%)
same,"percentage damage caused to the plant, ZEAMX (five-point scale)",Zea mays (ZEAMX) [5],1 (1=10-20%)
same,"percentage damage caused to the plant, IPOHE (five-point scale)",[6],1 (1=10-20%)
same,"percentage damage caused to the plant, SETFA (five-point scale)",Setaria faberi (SETFA) [7],4 (4=61-80%)
same,"percentage damage caused to the plant, ABUTH (five-point scale)",[8],1 (1=10-20%)
same,"percentage damage caused to the plant, five-point scale, ZEAMX",Zea mays (ZEAMX) [9],0 (0=0%)
same,"percentage damage caused to the plant, five-point scale, AMARE",[10],1 (1=10-20%)
same,"percentage damage caused to the plant, five-point scale, ECHCG",[11],2 (2=21-40%)
same,"percentage damage caused to the plant, five-point scale, SETFA",Setaria faberi (SETFA) [12],4 (4=61-80%)
"CCOC(=O)c1nn(-c2ccc(OC(F)(F)F)cc2)c2ccc(CC(C)C)c(S(C)(=O)=O)c2c1=O [Compound P45, ethyl 6-isobutyl-5-methylsulfonyl-4-oxo-1-[4-(trifluoromethoxy)phenyl]cinnoline-3-carboxylate]","percentage damage caused to the plant, five-point scale, ABUTH",[1],0 (0=0%)
same,"percentage damage caused to the plant, five-point scale, IPOHE",[2],0 (0=0%)
same,"percentage damage caused to the plant, ECHCG (five-point scale)",[3],1 (1=10-20%)
same,"percentage damage caused to the plant, AMARE (five-point scale)",[4],0 (0=0%)
same,"percentage damage caused to the plant, ZEAMX (five-point scale)",Zea mays (ZEAMX) [5],1 (1=10-20%)
same,"percentage damage caused to the plant, IPOHE (five-point scale)",[6],0 (0=0%)
same,"percentage damage caused to the plant, SETFA (five-point scale)",Setaria faberi (SETFA) [7],1 (1=10-20%)
same,"percentage damage caused to the plant, ABUTH (five-point scale)",[8],0 (0=0%)
same,"percentage damage caused to the plant, five-point scale, ZEAMX",Zea mays (ZEAMX) [9],0 (0=0%)
same,"percentage damage caused to the plant, five-point scale, AMARE",[10],0 (0=0%)
same,"percentage damage caused to the plant, five-point scale, ECHCG",[11],0 (0=0%)
same,"percentage damage caused to the plant, five-point scale, SETFA",Setaria faberi (SETFA) [12],0 (0=0%)
"CCOC(=O)c1nn(-c2ccc(OC(F)(F)F)cc2)c2cc(CC(C)C)cc(S(C)(=O)=O)c2c1=O [Compound P46, ethyl 7-isobutyl-5-methysulfonyl-4-oxo-1-[4-(trifluoromethoxy)phenyl]cinnoline-3-carboxylate]","percentage damage caused to the plant, five-point scale, ABUTH",[1],1 (1=10-20%)
same,"percentage damage caused to the plant, five-point scale, IPOHE",[2],0 (0=0%)
same,"percentage damage caused to the plant, ECHCG (five-point scale)",[3],1 (1=10-20%)
same,"percentage damage caused to the plant, AMARE (five-point scale)",[4],0 (0=0%)
same,"percentage damage caused to the plant, ZEAMX (five-point scale)",Zea mays (ZEAMX) [5],1 (1=10-20%)
same,"percentage damage caused to the plant, IPOHE (five-point scale)",[6],1 (1=10-20%)
same,"percentage damage caused to the plant, SETFA (five-point scale)",Setaria faberi (SETFA) [7],1 (1=10-20%)
same,"percentage damage caused to the plant, ABUTH (five-point scale)",[8],1 (1=10-20%)
same,"percentage damage caused to the plant, five-point scale, ZEAMX",Zea mays (ZEAMX) [9],2 (2=21-40%)
same,"percentage damage caused to the plant, five-point scale, AMARE",[10],0 (0=0%)
same,"percentage damage caused to the plant, five-point scale, ECHCG",[11],0 (0=0%)
same,"percentage damage caused to the plant, five-point scale, SETFA",Setaria faberi (SETFA) [12],0 (0=0%)
"CCOC(=O)c1nn(-c2ccc(OC(F)(F)F)cc2)c2ccc(C#N)c(S(C)(=O)=O)c2c1=O [Compound P47, ethyl 6-cyano-5-methylsulfonyl-4-oxo-1-[4-(trifluoromethoxy)phenyl]cinnoline-3-carboxylate]","percentage damage caused to the plant, five-point scale, ABUTH",[1],0 (0=0%)
same,"percentage damage caused to the plant, five-point scale, IPOHE",[2],0 (0=0%)
same,"percentage damage caused to the plant, ECHCG (five-point scale)",[3],1 (1=10-20%)
same,"percentage damage caused to the plant, AMARE (five-point scale)",[4],0 (0=0%)
same,"percentage damage caused to the plant, ZEAMX (five-point scale)",Zea mays (ZEAMX) [5],0 (0=0%)
same,"percentage damage caused to the plant, IPOHE (five-point scale)",[6],0 (0=0%)
same,"percentage damage caused to the plant, SETFA (five-point scale)",Setaria faberi (SETFA) [7],1 (1=10-20%)
same,"percentage damage caused to the plant, ABUTH (five-point scale)",[8],0 (0=0%)
same,"percentage damage caused to the plant, five-point scale, ZEAMX",Zea mays (ZEAMX) [9],0 (0=0%)
same,"percentage damage caused to the plant, five-point scale, AMARE",[10],0 (0=0%)
same,"percentage damage caused to the plant, five-point scale, ECHCG",[11],0 (0=0%)
same,"percentage damage caused to the plant, five-point scale, SETFA",Setaria faberi (SETFA) [12],0 (0=0%)
"CCOC(=O)c1nn(-c2ccc(OC(F)(F)F)cc2)c2cc(C#N)cc(S(C)(=O)=O)c2c1=O [Compound P48, ethyl 7-cyano-5-methylsulfonyl-4-oxo-1-[4-(trifluoromethoxy)phenyl]cinnoline-3-carboxylate]","percentage damage caused to the plant, five-point scale, ABUTH",[1],0 (0=0%)
same,"percentage damage caused to the plant, five-point scale, IPOHE",[2],0 (0=0%)
same,"percentage damage caused to the plant, ECHCG (five-point scale)",[3],0 (0=0%)
same,"percentage damage caused to the plant, AMARE (five-point scale)",[4],0 (0=0%)
same,"percentage damage caused to the plant, ZEAMX (five-point scale)",Zea mays (ZEAMX) [5],0 (0=0%)
same,"percentage damage caused to the plant, IPOHE (five-point scale)",[6],0 (0=0%)
same,"percentage damage caused to the plant, SETFA (five-point scale)",Setaria faberi (SETFA) [7],0 (0=0%)
same,"percentage damage caused to the plant, ABUTH (five-point scale)",[8],0 (0=0%)
same,"percentage damage caused to the plant, five-point scale, ZEAMX",Zea mays (ZEAMX) [9],0 (0=0%)
same,"percentage damage caused to the plant, five-point scale, AMARE",[10],0 (0=0%)
same,"percentage damage caused to the plant, five-point scale, ECHCG",[11],0 (0=0%)
same,"percentage damage caused to the plant, five-point scale, SETFA",Setaria faberi (SETFA) [12],0 (0=0%)
"CCOC(=O)c1nn(-c2ccc(OC(F)(F)F)cc2)c2ccc(OC)c(S(C)(=O)=O)c2c1=O [Compound P49, ethyl 6-methoxy-5-methylsulfonyl-4-oxo-1-[4-(trifluoromethoxy)phenyl]cinnoline-3-carboxylate]","percentage damage caused to the plant, five-point scale, ABUTH",[1],0 (0=0%)
same,"percentage damage caused to the plant, five-point scale, IPOHE",[2],0 (0=0%)
same,"percentage damage caused to the plant, ECHCG (five-point scale)",[3],1 (1=10-20%)
same,"percentage damage caused to the plant, AMARE (five-point scale)",[4],0 (0=0%)
same,"percentage damage caused to the plant, ZEAMX (five-point scale)",Zea mays (ZEAMX) [5],0 (0=0%)
same,"percentage damage caused to the plant, IPOHE (five-point scale)",[6],1 (1=10-20%)
same,"percentage damage caused to the plant, SETFA (five-point scale)",Setaria faberi (SETFA) [7],1 (1=10-20%)
same,"percentage damage caused to the plant, ABUTH (five-point scale)",[8],0 (0=0%)
same,"percentage damage caused to the plant, five-point scale, ZEAMX",Zea mays (ZEAMX) [9],0 (0=0%)
same,"percentage damage caused to the plant, five-point scale, AMARE",[10],0 (0=0%)
same,"percentage damage caused to the plant, five-point scale, ECHCG",[11],0 (0=0%)
same,"percentage damage caused to the plant, five-point scale, SETFA",Setaria faberi (SETFA) [12],0 (0=0%)
"CCOC(=O)c1nn(-c2ccc(OC(F)(F)F)cc2)c2ccc(F)c(S(C)(=O)=O)c2c1=O [Compound P51, ethyl 6-fluoro-5-methylsulfonyl-4-oxo-1-[4-(trifluoromethoxy)phenyl]cinnoline-3-carboxylate]","percentage damage caused to the plant, five-point scale, ABUTH",[1],0 (0=0%)
same,"percentage damage caused to the plant, five-point scale, IPOHE",[2],0 (0=0%)
same,"percentage damage caused to the plant, ECHCG (five-point scale)",[3],0 (0=0%)
same,"percentage damage caused to the plant, AMARE (five-point scale)",[4],0 (0=0%)
same,"percentage damage caused to the plant, ZEAMX (five-point scale)",Zea mays (ZEAMX) [5],0 (0=0%)
same,"percentage damage caused to the plant, IPOHE (five-point scale)",[6],0 (0=0%)
same,"percentage damage caused to the plant, SETFA (five-point scale)",Setaria faberi (SETFA) [7],0 (0=0%)
same,"percentage damage caused to the plant, ABUTH (five-point scale)",[8],0 (0=0%)
same,"percentage damage caused to the plant, five-point scale, ZEAMX",Zea mays (ZEAMX) [9],0 (0=0%)
same,"percentage damage caused to the plant, five-point scale, AMARE",[10],0 (0=0%)
same,"percentage damage caused to the plant, five-point scale, ECHCG",[11],0 (0=0%)
same,"percentage damage caused to the plant, five-point scale, SETFA",Setaria faberi (SETFA) [12],0 (0=0%)
